# Target: T1, PfENT1 (Plasmodium falciparum, UniProt Q8IDM6)
# T1 construct: expressed in transfected cells; host or cells: fui1Δ yeast (Saccharomyces cerevisiae), co-expressing GFP
# Format: cell-based
# Details: primary HTS, compounds at 10 μM, 125 μM 5-FUrd
# Protocol: A yeast-based high throughput screening (HTS) assay was used to identify compounds that inhibit PfENT1. The compounds described in this application were identified by screening four commercially available, chemical compound libraries obtained from Dr. Donald Landry's laboratory (Department of Medicine, Columbia University). These libraries contain approximately 80,000 unique chemical entities.
# In the primary screen the compounds were tested at a concentration of 10 μM. Hits were identified by the growth of fui1Δ yeast expressing PfENT1 and Green Fluorescent Protein (GFP) in the presence of the cytotoxic nucleoside 5-fluorouridine (5-FUrd). 5-FUrd is transported by PfENT1. PfENT1 expressing fui1Δ yeast will only grow in the presence of 125 μM 5-FUrd if a PfENT1 inhibitor blocks the uptake of 5-FUrd into the yeast. Significant yeast growth in the HTS in 384 well plates was determined by two criteria: 1) turbidity as determined by the optical density at 620 nm (OD620) and 2) GFP fluorescence intensity. […] Hits had to be positive by both criteria.
# T1 sequence (Q8IDM6 whole entry): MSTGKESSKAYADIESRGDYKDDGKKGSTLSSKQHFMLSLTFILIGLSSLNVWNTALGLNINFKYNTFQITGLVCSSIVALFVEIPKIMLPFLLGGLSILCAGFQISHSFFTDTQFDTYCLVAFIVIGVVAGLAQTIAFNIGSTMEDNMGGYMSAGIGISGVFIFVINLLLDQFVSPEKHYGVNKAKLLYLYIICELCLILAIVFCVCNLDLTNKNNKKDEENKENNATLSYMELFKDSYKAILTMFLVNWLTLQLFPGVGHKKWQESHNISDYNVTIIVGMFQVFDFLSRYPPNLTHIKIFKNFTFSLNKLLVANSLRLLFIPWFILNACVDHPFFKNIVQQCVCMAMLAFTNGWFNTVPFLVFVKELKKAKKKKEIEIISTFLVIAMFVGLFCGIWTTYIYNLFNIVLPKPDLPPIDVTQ
row,SMILES,Avg Normalized % maximal activity [%]
1,"COc1ccc(C(=O)Nc2cccc(-c3nc4ncccc4o3)c2)cc1 [compound 16, 4-methoxy-N-(3-[1,3]oxazolo [4,5-b]pyridin-2-ylphenyl)benzamide]",23.87
2,"Cc1nc(NC(=O)c2oc3ccccc3c2C)sc1C(=O)N(C)C [compound 22, N,N,4-trimethyl-2-{[(3-methyl-1-benzofuran-2-yl)carbonyl]amino}-1,3-thiazole-5-carboxamide]",17.36
3,"COc1cc(NC(=O)CSc2nccc(C)n2)c(OC)cc1Cl [compound 117, N-(4-chloro-2,5-dimethoxyphenyl)-2-[(4-methyl-2-pyrimidinyl)thio]acetamide]",4.28
4,"CCc1ccc(C(C)NC(=O)c2nc[nH]n2)cc1 (stereo not drawn) [compound 48, N-[1-(4-ethylphenyl)ethyl]-1H-1,2,4-triazole-3-carboxamide]",8.44
5,"Cc1ccc(NC(=O)CSc2nccn2C)cc1C [compound 115, N-(3,4-dimethylphenyl)-2-[(1-methyl-1H-imidazol-2-yl)thio]acetamide]",4.36
6,CC(C)(C)c1nnc(NC(=O)c2cccc(Cl)c2)s1 [compound 68],6.79
7,"O=C(COc1ccccc1Cl)Nc1ccc(C(=O)N2CCCCC2)cc1 [compound 8, 2-(2-chlorophenoxy)-N-[4-(1-piperidinylcarbonyl)phenyl]acetamide]",54.23
8,"COc1ccc(OC)c(NC(=O)N2CCN(c3cc(Cl)ccc3C)CC2)c1 [compound 124, 4-(5-chloro-2-methylphenyl)-N-(2,5-dimethoxyphenyl)-1-piperazine-carboxamide]",3.95
9,C#C[C@]1(O)CC[C@H]2[C@@H]3CCC4=C(CCC(=O)C4)[C@H]3CC[C@@]21C [compound 74],6.35
10,"O=C(Nc1cccc(NC(=O)c2cccs2)c1)c1cc2ccccc2o1 [compound 116, N-{3-[(2-thienylcarbonyl)amino]phenyl)-1-benzofuran-2-carboxamide]",4.34
11,C[C@@H]1C[C@@H](O[C@H]2[C@H](O[C@H]3CC[C@@]4(C)C(CC[C@]5(C)[C@@H]4CC=C4C6CC(C)(C)CC[C@]6(C(=O)O[C@@H]6O[C@H](CO[C@@H]7O[C@H](CO)[C@@H](O[C@@H]8O[C@@H](C)[C@H](O)[C@@H](O)[C@H]8O)[C@H](O)[C@H]7O)[C@@H](O)[C@H](O)[C@H]6O)CC[C@]45C)[C@]3(C)CO)OC[C@H](O)[C@@H]2O)[C@H](O)[C@H](O)[C@H]1O (stereo partly drawn) [compound 38],10.61
12,"COc1ccc(-c2nc3ccccc3o2)cc1NC(=O)c1cccnc1 [compound 27, N-[5-(1,3-benzoxazol-2-yl)-2-methoxyphenyl] nicotinamide]",14.03
13,"COc1ccc(C2CC(c3ccccc3C)n3nc(N)nc3N2)cc1 (stereo not drawn) [compound 133, 5-(4-methoxyphenyl)-7-(2-methylphenyl)-4,5,6,7-tetrahydro[1,2,4] triazolo[1,5-a]pyrimidin-2-amine]",3.57
14,"Cc1c(/C=C/c2nc3ccccc3c(=O)[nH]2)c2ccccc2n1C [compound 34, 2-[2-(1,2-dimethyl-1H-indol-3-yl)vinyl]-4(3H)-quinazolinone]",11.27
15,O=P1(N(CCCl)CCCl)NCCCO1 (stereo not drawn) [compound 82],5.76
16,"CCC(=O)c1ccc(/C=C/c2nc3ccccc3n2C)o1 [compound 66, 1-{5-[2-(1-methyl-1H-benzimidazol-2-yl)vinyl]-2-furyl}-1-propanone]",7.04
17,CC(=O)Nc1ccc2nc(SCC(=O)NC3CCCCC3)sc2c1 [compound 160],2.09
18,"CCOC(=O)c1cc(NC(=O)c2ccco2)ccc1N1CCOCC1 [compound 51, ethyl 5-(2-furoylamino)-2-morpholin-4-ylbenzoate]",8.11
19,O=C(Nc1cccnc1)c1cc2cc(C3CC3)cc(C(F)(F)F)n2n1 [compound 100],4.83
20,"COc1ccc(NC(=O)C2Cc3ccccc3C(=O)O2)cc1 (stereo not drawn) [compound 106, N-(4-methoxyphenyl)-1-oxo-3,4-dihydro-1H-isochromene-3-carboxamide]",4.69
21,"Cc1ccc2c(Cl)c(C(=O)Nc3cccnc3)sc2c1 [compound 60, 3-chloro-6-methyl-N-3-pyridinyl-1-benzothiophene-2-carboxamide]",7.53
22,C1CCN2C[C@@H]3C[C@@H](CN4CCCC[C@@H]34)[C@H]2C1.O=S(=O)(O)O [compound 81],5.81
23,"COc1ccc(OC)c(NC(=O)COc2ccc3ccccc3c2)c1 [compound 163, N-(2,5-dimethoxyphenyl)-2-(2-naphthyloxy)acetamide]",2.04

row,SMILES,Avg Normalized % maximal activity [%]
1,"Cc1cc(C)cc(C(=O)Nc2nnc(C)s2)c1 [compound 94, 3,5-dimethyl-N-(5-methyl-1,3,4-thiadiazol-2-yl)benzamide]",5.01
2,NCCc1cc(O)c(O)cc1O [compound 84],5.72
3,"O=C(CSc1nnc2ccc3ccccc3n12)Nc1ccccc1F [compound 56, N-(2-fluorophenyl)-2-([1,2,4]triazolo[4,3-a]quinolin-1-ylthio)acetamide]",7.69
4,"Cc1cc(=O)oc2cc(OCc3nnc(-c4ccccc4)o3)ccc12 [compound 12, 4-methyl-7-[(5-phenyl-1,3,4-oxadiazol-2-yl)methoxy]-2H-chromen-2-one]",31.72
5,"Cc1cc2nc(Nc3nc(=O)c(C)c(C)[nH]3)nc(C)c2cc1C [compound 144, 5,6-dimethyl-2-[(4,6,7-trimethyl-2-quinazolinyl)amino]-4(1H)-pyrimidinone]",3.04
6,"Cc1ccc(C(=O)c2cccc(NC(=O)c3cccs3)c2)cc1C [compound 149, N-[3-(3,4-dimethylbenzoyl)phenyl]-2-thiophene-carboxamide]",2.71
7,"CCOc1cc(-c2noc(CCCC(=O)N3CCCCC3)n2)ccc1OC [compound 64, 1-{4-[3-(3-ethoxy-4-methoxyphenyl)-1,2,4-oxadiazol-5-yl]butanoyl}piperidine]",7.14
8,"CCOC(=O)c1ccc(NC(=O)c2nc(SC)ncc2Cl)cc1 [compound 91, ethyl 4-({[5-chloro-2-(methylthio)-4-pyrimidinyl]carbonyl}amino)benzoate]",5.19
9,"COc1ccc(OC)c(Nc2nc(=O)c3cccnc3s2)c1 [compound 63, 2-[(2,5-dimethoxyphenyl)amino]-4H-pyrido[3,2-e][1,3] thiazin-4-one]",7.19
10,"COC(=O)c1cc(NC(=O)c2cc3ccccc3o2)ccc1N1CCOCC1 [compound 73, methyl 5-[(1-benzofuran-2-ylcarbonyl)amino]-2-morpholin-4-ylbenzoate]",6.43
11,"O=C(Nc1ccc(C(=O)N2CCCCC2)cc1)c1cc2ccccc2oc1=O [compound 70, 2-oxo-N-[4-(1-piperidinylcarbonyl)phenyl]-2H-chromene-3-carboxamide]",6.71
12,"Cc1ccc(NC(=O)CSc2nc3cccnc3[nH]2)c(C)c1 [compound 157, N-(2,4-dimethylphenyl)-2-(3H-imidazo[4,5-b]pyridin-2-ylthio)acetamide]",2.12
13,"COc1cc(NC(=O)c2cccc(Br)c2)nc(OC)n1 [compound 101, 3-bromo-N-(2,6-dimethoxy-4-pyrimidinyl)benzamide]",4.78
14,"CSc1ccccc1C(=O)Nc1nc(=O)c2ccccc2[nH]1 [compound 90, 2-(methylthio)-N-(4-oxo-1,4-dihydro-2-quinazolinyl)benzamide]",5.22
15,"Cc1cc(C)cc(C(=O)Nc2cccc(NC(=O)c3ccco3)c2)c1 [compound 75, N-{3-[(3,5-dimethylbenzoyl)amino]phenyl}-2-furamide]",6.27
16,"CC(C)c1nnc(NC(=O)c2cccc(I)c2)s1 [compound 123, 3-iodo-N-(5-isopropyl-1,3,4-thiadiazol-2-yl)benzamide]",4.10
17,"CCOc1ccc2c(C)cc(=O)oc2c1C [compound 140, 7-ethoxy-4,8-dimethyl-2H-chromen-2-one]",3.21
18,"O=C(NC(=O)c1ccccc1)Nc1cc(N2CCOCC2)ncn1 [compound 43, N-({[6-(4-morpholinyl)-4-pyrimidinyl]amino}carbonyl) benzamide]",9.52
19,"CCOc1ccccc1NC(=O)c1cccc(NC(=O)c2ccco2)c1 [compound 31, N-(3-{[(2-ethoxyphenyl)amino]carbonyl}phenyl)-2-furamide]",13.00
20,"O=C(Nc1cccc(-c2nc3ncccc3o2)c1)c1ccco1 [compound 11, N-(3-[1,3]oxazolo[4,5-b]pyridin-2-ylphenyl)-2-furamide]",32.85
21,"CCOC(=O)c1ccc(NC(=O)c2nn(CC)cc2Br)cc1 [compound 79, ethyl 4-{[(4-bromo-1-ethyl-1H-pyrazol-3-yl)carbonyl]amino}benzoate]",6.01
22,O=C(Nc1ccc(-c2nnc(-c3ccccc3)o2)cc1)c1ccccc1Cl [compound 132],3.60
